# Measurements reported in US4803208A, “Opiate agonists and antagonists” (Sloan-Kettering Institute For Cancer Research, priority 1985, dated 1989).
# Several values for one entry are separate records, joined by “and”; a condition that tells them apart may be missing. Equal entries are not always repeated. Entries after “also recorded” stand apart in the source; their conditions may differ. Structures can show the parent of a compound that is named as a salt. Where two headings read alike, the source gives them in different places.
# How the values were obtained:
# mice [1] = assay: In vivo actions of naltrexone-oxymorphonazine (tailflick latencies); parameters: species or system mouse; conditions: for Tailflick Latencies, Prior: baseline prior to 10 mg/kg s.c.
# Method: Groups of mice were injected subcutaneously with the stated drug and latencies in the tailflick test determined and compared to those obtained prior to testing. […] This compares with an analgesic rate of 100% of animals receiving oxymorphone HCl in other control experiments.
# opiate receptors [2] = assay: Irreversible inhibition of ^3 H-DADL binding, 100 nM, two washes; parameters: species or system rat; conditions: for ^3 H-DADL Binding: 30 min 25° C., DADL 1 nM, control 1800 ± 53 cpm, triplicate ± S.E.M.; for ^3 H-DADL Binding, change: vs control, 30 min
# Method: (§1) Each wash consisted of centrifugation, incubation at 37° for 10 min and centrifugation again. […] Bindig was then performed with either ^3 H-D-ala^2 -D-leu^5 -enkephalin (DADL) or ^3 H-dihydromorphine (DHM) both at 1 nM. Specific binding was determined as that displaceable by levallorphan at 1000 nM. All values represent the means of triplicate samples ±S.E.M.
# opiate receptors [3] = assay: Irreversible opiate receptor binding/blocking (general statements); conditions: for removal of reversible ligand by washing (in words): two washes with incubation at 37° for 10 min; for potency of irreversible block of opiate binding in vitro relative to corresponding hydrazone: azine vs corresponding hydrazone
# Method: (§2) In brief, brain membranes were prepared and triplicate samples incubated with [^3 H] labelled ligands and designated drugs for 30 minutes at 25° C., followed by filtration over Whatman GF/B filters. […] Specific binding is defined as the difference in binding in the presence and absence of levallorphan (1 uM). […] Each tissue wash included incubation for 10 min. at 37° C., centrifugation and resuspension. Irreversibility experiments included four washes before binding assays were performed, unless otherwise stated.
# opiate receptors [4] = molecular target: T1, opiate receptors (Rattus norvegicus, UniProt P33535); assay: Irreversible inhibition of ^3 H-DHM binding, 100 nM, two washes; conditions: for ^3 H-DHM Binding: 100 nM, 30 min 25° C., two washes, DHM 1 nM, control 3447 ± 273 cpm, triplicate ± S.E.M.; for inhibition at 0.1 µM: 0.5 h, read-out: ^3 H-DHM Binding, change
# T1 construct: Rat brain homogenates were prepared as described; from tissue; host or cells: rat brain homogenate / membranes
# Method: as §1
# [5] = Reaction of hydrazones to azines in solution; conditions: acidic aqueous solutions; absolute ethanol or water/acetic acid (1%), 15 min
# opiate receptors [6] = molecular target: T1, opiate receptors; assay: biochemical; format: binding; conditions: for irreversible inhibition of [^3 H]dihydromorphine binding (in words): 2 μM, various concentrations in b75 (FIG. 2); for inhibition at 2 µM: 0.5 h, read-out: Change in Binding (Percent), [^3 H]dihydromorphine
# Method: Results are from a single experiment which has been replicated three times.
# as §2
# (§3) To determine which compounds did irreversibly bind to the receptor, membranes were incubated with the various drugs (2 μM) and then the free and reversibly bound drug washed away (Table 2).
# (§4) Rat brain membranes were prepared and incubated with the above drugs (2 μM) for 30 min at 25° C. and the tissue was then washed four times as described in the text to remove reversibly bound material. The results represent the means ±s.e.m. of three separate experiments utilizing [^3 H]D-ala^2 -D-leu^5 -enkephal in (1 nM) and [^3 H]dihydromorphine (0.8 nM). […] After 15 min the solution was added to tissue.
# After incubating membranes with the specified drug, the membranes were extensively washed and a binding assay with [^3 H]dihydromorphine performed.
# opiate receptors [7] = format: binding, rat; conditions: for irreversible inhibition of [^3 H]D-ala^2 -D-leu^5 -enkephalin binding (in words): 2 μM; for Change in Binding (Percent), [^3 H]D-ala^2 -D-leu^5 -enkephalin: compound 2 μM, 30 min 25° C., four washes, ligand 1 nM, mean ± s.e.m. of three experiments
# Method: as §2, §3, §4
# rats [8] = conditions: cited from earlier work
# mice [9] = assay: Oxymorphonazine analgesia in vivo (Tail-Flick Assay); parameters: species or system mouse; conditions: 25 μg in 5 μl of artificial CSF; for Analgesia (percent), 20 hr.: groups differ p<0.015, Fisher's Exact Test
# Method: Mice were injected with either oxymorphone or oxymorphonazine (both 25 μg in 5 μl of artificial CSF) under Ethrane/oxygen anesthesia and tested for analgesia at the stated time. Analgesia was determined by Tail-Flick Assay. Quantal criteria, the doubling of the baseline latency for each individual animal, was used. At 20 hours, the oxymorphone and oxymorphonazine groups differed from each other at p<0.015 level, as determined by Fisher's Exact Test.
# Duration of action = format: in vivo; conditions: compared to conventional / currently available opiates
# growth hormone release = assay: Growth hormone release in vivo
# rats [10] = format: in vivo, rat; conditions: 50 mg/kg intravenously
# Method: They were then food deprived for 24 hours but allowed free access to water. Five rats received saline, four received naloxone and three naloxazone. […] The animals were then given free access to food for 1 hour and their weight gain noted. Thus, eating was measured 24 hours after the administration of the drugs and after 24 hours of food deprivation.
# [11] = tested on: high affinity, or mu1, binding sites; conditions: Pasternak et al.; Zhang and Pasternak; cited from earlier work
# prolactin release = assay: Prolactin release in vivo
# opiate receptors [12] = molecular target: T1, opiate receptors; assay: biochemical; format: binding
# Method: as §2
# IC50 values were determined by least square fits of a log-probit curve. The results are the means ±s.e.m. of three IC50 values determined in separate experiments.
# [13] = compound 2 μM, 30 min 25° C., four washes, ligand 0.8 nM, mean ± s.e.m. of three experiments
# T1 sequence (P33535 whole entry): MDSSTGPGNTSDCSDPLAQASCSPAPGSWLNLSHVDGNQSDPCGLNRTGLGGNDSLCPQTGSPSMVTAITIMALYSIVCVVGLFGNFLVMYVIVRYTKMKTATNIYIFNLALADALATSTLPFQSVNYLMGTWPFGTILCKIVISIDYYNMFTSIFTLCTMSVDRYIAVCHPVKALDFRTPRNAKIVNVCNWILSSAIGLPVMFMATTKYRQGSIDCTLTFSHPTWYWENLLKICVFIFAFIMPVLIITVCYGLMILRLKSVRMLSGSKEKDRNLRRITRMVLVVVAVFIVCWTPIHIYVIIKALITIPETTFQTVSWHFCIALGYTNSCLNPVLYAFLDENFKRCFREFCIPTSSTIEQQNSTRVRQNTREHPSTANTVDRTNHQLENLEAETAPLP
compound,measurement,setting,value
"CN1CCC23c4c5ccc(O)c4OC2C(=NN=C2CCC4(O)C6Cc7ccc(O)c8c7C4(CCN6CC4CC4)C2O8)CCC3(O)C1C5 (stereo not drawn) [Naltrexone-oxymorphonazine, naltrexone-oxymorphonazine]","Tailflick Latencies, After 20 min",mice [1]; 10 mg/kg s.c.,2.20 ± 0.35 s
same,"Tailflick Latencies, After 40 min",mice [1]; 10 mg/kg s.c.,2.29 ± 0.31 s
same,"Tailflick Latencies, Prior",mice [1],2.44 ± 0.32 s
same,animals analgesic (in words),"mice [1]; doubling of baseline latencies, 10 mg/kg s.c.",none of the animals receiving the mixed azine (naltrexone-oxymorphonazine) were analgesic
same,action in vivo (in words),mice [1]; in vivo tests of mixed agonist/antagonist compounds,act as antagonists
same,^3 H-DADL Binding,opiate receptors [2],1205 ± 157 cpm
same,"^3 H-DADL Binding, change",opiate receptors [2],-33%
same,irreversible inhibition of opiate receptor binding / activity (in words),opiate receptors [3],appear to irreversibly bind the opiate receptors
same,^3 H-DHM Binding,opiate receptors [4],1487 ± 120 cpm
same,inhibition at 0.1 µM,opiate receptors [4],57%
"CN1CCC23c4c5ccc(O)c4OC2C(=NN)CCC3(O)C1C5 (stereo not drawn) [Oxymorphazone, oxymorphazone]",stability in solution: reaction to azine (in words),[5],no azine formation could be detected
same,irreversible inhibition of [^3 H]dihydromorphine binding (in words),opiate receptors [6],neither naloxazone nor oxymorphazone irreversibly inhibited the binding
same,inhibition at 2 µM,opiate receptors [6]; [13],-3%
same,irreversible inhibition of [^3 H]D-ala^2 -D-leu^5 -enkephalin binding (in words),opiate receptors [7],neither naloxazone nor oxymorphazone irreversibly inhibited the binding
same,"Change in Binding (Percent), [^3 H]D-ala^2 -D-leu^5 -enkephalin",opiate receptors [7],43% ± 24
"O=C1CC[C@@]2(O)[C@H]3Cc4ccc(O)c5c4[C@@]2(CCN3CC2CC2)[C@H]1O5 [Naltrexone, naltrexone]","Tailflick Latencies, After 20 min",mice [1]; 10 mg/kg s.c.,2.37 ± 0.31 s
same,"Tailflick Latencies, After 40 min",mice [1]; 10 mg/kg s.c.,2.59 ± 0.35 s
same,"Tailflick Latencies, Prior",mice [1],2.63 ± 0.27 s
same,removal of reversible ligand by washing (in words),opiate receptors [3],effectively removed
same,suppression of eating behavior (known),rats [8],effectively suppress eating behavior in rats
"CN1CCC23c4c5ccc(O)c4OC2C(=NN=C2CCC4(O)C6Cc7ccc(O)c8c7C4(CCN6C)C2O8)CCC3(O)C1C5 (stereo not drawn) [Oxymorphonazine, oxymorphonazine]","Analgesia (percent), 1 hr.",mice [9],100%
same,"Analgesia (percent), 4 hr.",mice [9],100%
same,"Analgesia (percent), 10 hr.",mice [9],100%
same,"Analgesia (percent), 20 hr.",mice [9],44%
same,potency of irreversible block of opiate binding in vitro relative to corresponding hydrazone,opiate receptors [3],20-40 fold
same,duration of action (in words),Duration of action,lasting far longer than conventional opiates
same,inhibition at 2 µM,opiate receptors [6],71 ± 4%
same,"Change in Binding (Percent), [^3 H]D-ala^2 -D-leu^5 -enkephalin",opiate receptors [7],-59 ± 3%
"C=CCN1CCC23c4c5ccc(O)c4OC2C(=NN)CCC3(O)C1C5 (stereo not drawn) [Naloxazone, naloxazone]","effect on basal levels of growth hormone, naloxazone (in words)",growth hormone release; basal levels,significant reduction in the basal levels of the drugs
same,effect on growth hormone release (in words),growth hormone release; in vivo,actually increased; also recorded: without effecting growth hormone release elicited by morphine
same,effect on feeding (in words),rats [10],significant effect as an appetite suppressant
same,"Amounts eaten, individual animals","rats [10]; 1 hour free access to food, 24 hours after drug",3.3 grams and 2.4 grams and 3.5 grams
same,"Amounts eaten, Mean ± SEM","rats [10]; 1 hour free access to food, 24 hours after drug, saline 4.78 ± 0.42, significant at the p 0.05 level (ANOVA)",3.07 ± 0.34 grams
same,stability in solution: reaction to azine (in words),[5],no azine formation could be detected
same,dose for irreversible blockade of opiate receptor binding (naloxazone),opiate receptors [3]; high doses,2 µM
same,blocking opiate analgesia / effect on opiate-induced lethality (in words),[11],blocking opiate analgesia with little effect on other classes of binding sites or opiate-induced lethality
same,"effect on basal levels of prolactin, naloxazone (in words)",prolactin release; basal levels,significant reduction in the basal levels of the drugs
same,depression of morphine-induced release of prolactin,prolactin release; in vivo,over 80%
same,effect on prolactin release (in words),prolactin release; in vivo,selectively lowering prolactin release
same,irreversible inhibition of [^3 H]D-ala^2 -D-leu^5 -enkephalin binding (in words),opiate receptors [7],neither naloxazone nor oxymorphazone irreversibly inhibited the binding
same,"Change in Binding (Percent), [^3 H]D-ala^2 -D-leu^5 -enkephalin",opiate receptors [7],+15 ± 5%
"CN1CC[C@]23c4c5ccc(O)c4O[C@H]2C(=O)CC[C@@]3(O)[C@H]1C5 [Oxymorphone, oxymorphone]","Analgesia (percent), 1 hr.",mice [9],100%
same,"Analgesia (percent), 4 hr.",mice [9],78%
same,"Analgesia (percent), 10 hr.",mice [9],33%
same,"Analgesia (percent), 20 hr.",mice [9],0%
same,removal of reversible ligand by washing (in words),opiate receptors [3],effectively removed
"CN1CC[C@]23c4c5ccc(O)c4O[C@H]2[C@@H](O)C=C[C@H]3[C@H]1C5 [Morphine, morphine]",hormone release by morphine (in words),growth hormone release; prolactin and growth hormone,releases both hormones
same,irreversible inhibition of opiate receptor binding / activity (in words),opiate receptors [3],show no irreversible inhibition
same,hormone release by morphine (in words),prolactin release; prolactin and growth hormone,releases both hormones
"NN=C1CCC2(O)C3Cc4ccc(O)c5c4C2(CCN3CC2CC2)C1O5 (stereo not drawn) [Naltrexazone, naltrexazone]",stability in solution: reaction to azine (in words),[5],A trace amount of azine was present
same,IC50,opiate receptors [12],1.7 ± 0.2 nM
same,irreversible inhibition of [^3 H]dihydromorphine binding (in words),opiate receptors [6],small amount of inhibition
same,inhibition at 2 µM,opiate receptors [6]; [13],31 ± 26%
same,irreversible inhibition of [^3 H]D-ala^2 -D-leu^5 -enkephalin binding (in words),opiate receptors [7],small amount of inhibition
same,"Change in Binding (Percent), [^3 H]D-ala^2 -D-leu^5 -enkephalin",opiate receptors [7],-17 ± 19%
"Oc1ccc2c3c1OC1C(=NN=C4CCC5(O)C6Cc7ccc(O)c8c7C5(CCN6CC5CC5)C4O8)CCC4(O)C(C2)N(CC2CC2)CCC314 (stereo not drawn) [Naltrexonazine, naltrexonazine]","Tailflick Latencies, After 20 min",mice [1]; 10 mg/kg s.c.,2.50 ± 0.36 s
same,"Tailflick Latencies, After 40 min",mice [1]; 10 mg/kg s.c.,2.74 ± 0.49 s
same,"Tailflick Latencies, Prior",mice [1],2.50 ± 0.34 s
same,^3 H-DADL Binding,opiate receptors [2],653 ± 85 cpm
same,"^3 H-DADL Binding, change",opiate receptors [2],-65%
same,potency of irreversible block of opiate binding in vitro relative to corresponding hydrazone,opiate receptors [3],20-40 fold
same,selectivity for mu1 class versus naloxone and naltrexone (in words),opiate receptors [3]; compared with naloxone and naltrexone,far more selective for the mu1 class of opiate binding sites
same,IC50,opiate receptors [12],1.16 nM
same,duration of action (in words),Duration of action,in the order of days
same,duration of action (in words),Duration of action; listed as naltrexonazine,lasting far longer than conventional opiates
same,inhibition at 2 µM,opiate receptors [6]; [13],88 ± 12%
same,"Change in Binding (Percent), [^3 H]D-ala^2 -D-leu^5 -enkephalin",opiate receptors [7],-97 ± 3%
same,^3 H-DHM Binding,opiate receptors [4],1183 ± 128 cpm
same,inhibition at 0.1 µM,opiate receptors [4],66%
CN1CC[C@]23c4c5ccc(O)c4O[C@H]2C(=O)CC[C@@]3(O)[C@H]1C5 [oxymorphone HCl],analgesic rate,mice [1]; other control experiments,100%
"C=CCN1CCC23c4c5ccc(O)c4OC2C(=NN=C2CCC4(O)C6Cc7ccc(O)c8c7C4(CCN6CC=C)C2O8)CCC3(O)C1C5 (stereo not drawn) [Naloxonazine, naloxonazine]",dose reproducing the irreversible blockade of opiate receptor binding by naloxazone,opiate receptors [3]; low doses,50 nM
same,duration of action (in words),Duration of action,in the order of days
same,duration of action (in words),Duration of action; listed as naloxonazine,lasting far longer than conventional opiates
same,eliminated [^3 H]D-ala^2 -D-leu^5 -enkephalin binding,"opiate receptors [7]; 2 uM, 30 min",over 90%
same,"Change in Binding (Percent), [^3 H]D-ala^2 -D-leu^5 -enkephalin",opiate receptors [7],-93% ± 4
